Test results reported in patent publication US10935498B1, “Fluorescent probe for detecting nitroreductase and preparation method and use thereof in enzymatic reaction” (SOUTH CHINA UNIVERSITY OF TECHNOLOGY, priority 2018, dated 2021).

How the values were obtained:
[1] = tested on: nitroreductase; test: Fluorescent response of the probe to nitroreductase (NTR) in PBS buffer; format: biochemical; settings: probe 10 μM, excitation 500 nm
Method: 1.5 mg of the solid fluorescent compound, 3-(4-(2-(4′-(diphenylamino)-3-((4-nitrobenzyl)oxy)-[1,1′-biphenyl]-4-yl)vinyl)quinolin-1-ium-1-yl)propane-1-sulfonate (TAE-NQS, prepared in Example 1), was dissolved in 2 mL of DMSO, and prepared into a 1 mM stock solution of the fluorescent compound. Before the test, of the fluorescent compound was diluted with a phosphate buffer (10 mM, pH 7.4), and a solution system to be tested containing 1% DMSO was obtained (final concentration of the probe was 10 μM).
3 μL of the above-mentioned stock solution of the fluorescent compound was drawn, and a blank control sample and test samples were prepared with PBS buffer solution (10 mM, pH=7.4). […] The samples were incubated at 37° C. for 15 minutes, then the absorption spectra ranging from 350 nm to 700 nm were recorded, and the fluorescence spectra were measured under the excitation light of 500 nm. […]
When the concentration of NTR was 2 μg/mL and the concentration of the probe was 10 μM, the fluorescence intensity varied over time, shown as FIG. 7. […] By controlling the temperature to be 37° C. and the incubation time to be 5 minutes, the fluorescence spectra under the excitation wavelength of 500 nm for each test sample were recorded. […]

[2] = Solubility (stated property); format: physicochemical
[3] = Photostability (stated property); format: physicochemical
[4] = Toxicity (stated property)

Structure (SMILES): O=[N+]([O-])c1ccc(COc2cc(-c3ccc(N(c4ccccc4)c4ccccc4)cc3)ccc2C=Cc2cc[n+](CCCS(=O)(=O)[O-])c3ccccc23)cc1 [TAE-NQS, 3-(4-(2-(4′-(diphenylamino)-3-((4-nitrobenzyl)oxy)-[1,1′-biphenyl]-4-yl)vinyl)quinolin-1-ium-1-yl)propane-1-sulfonate]
- time in which the enzymatic reaction was completed ([1]; NTR 0 μg/mL to 5 μg/mL, PBS pH 7.4, 37° C.): ≤ 30 min
- fluorescence intensity compared with the blank sample ([1]; nitroreductase 2 μg/mL, NADH 100 μM, PBS 10 mM pH 7.4, 37° C., 15 minutes): changed significantly
- solubility in solvents such as DMSO and DMF ([2]; DMSO, DMF): easily soluble
- solubility in water ([2]; water): slightly soluble
- photostability [3]: good
- toxicity [4]: non-toxic
